US6706664B1, “Benzoxazole compounds, process for the preparation thereof and herbicides” (UBE Industries, Ltd., priority 1999, dated 2004)

Experiments:
Parameters in all cases: key: 0: normal development; 1: Less damaged; 2: Slightly damaged; 3: Moderately damaged; 4: Severely damaged; 5: All killed
bulrush = experiment: Herbicidal test for paddy field; assay type: in vivo, Scrips juncoides; conditions: paddy field pot, 500 g/ha dropwise at 1.5 leaf stage of barnyardgrass, 3 weeks, rank vs non-treated
Description: (§1) Wagner pots, each having an area of 1/5000 are, were packed with Ube soil (alluvial soil) and planted with seeds or tubers of young rice plant, barnyardgrass, bulrush, flat sedge and monochoria. Then, the pots were filled with water to a depth of 3 cm.
(§2) Each wettable powder of the desired compounds (I) shown in Table 1 prepared in accordance with Example 2 was diluted with water containing a surfactant (0.05%) and subjected to dropwise addition treatment by using pipet so that an effective concentration of the compound (I) in each herbicide became 500 g/ha at 1.5 leaf stage of barnyardgrass.
(§3) These plants were controlled in a glass house at an average temperature of 25° C. for 3 weeks, and then herbicidal effects thereof were investigated.
(§4) The herbicidal effects are evaluated according to the following 6 ranks as compared with non-treated district.
(§5) (0: normal development, 1: Less damaged, 2: Slightly damaged, 3: Moderately damaged, 4: Severely damaged, 5: All killed).

barnyardgrass [1] = experiment: Herbicidal test for paddy field; assay type: in vivo, Echinochloa crusgalli; conditions: paddy field pot, 500 g/ha dropwise at 1.5 leaf stage of barnyardgrass, 3 weeks, rank vs non-treated
Description: as §1, §2, §3, §4, §5

Large crabgrass = experiment: Soil treatment test for upland field; assay type: in vivo, Digitaria adscendens; conditions: 500 g/ha, glass house 25° C., 3 weeks
Excerpt: as §5
(§6) Wagner pots, each having an area of 1/5000 are, were packed with Ube soil (alluvial soil), and then each seed of corn, soybean, cotton, wheat, solgum, sugar beat, Large crabgrass, barnyardgrass, green foxtail, blackgrass, annual bluegrass, common lambsquartes, livid amaranth and velvetleaf were planted and covered with soil.
(§7) Each wettable powder of the desired compounds (I) shown in Table 1 prepared in accordance with Example 2 was diluted with water containing a surfactant (0.05%) and uniformly sprayed on the surface of each soil so that an effective concentration of the compound (I) in each herbicide became 500 g/ha. These plants were controlled in a glass house at an average temperature of 25° C. for 3 weeks, and then herbicidal effects thereof were investigated.
(§8) The herbicidal effects were evaluated according to the evaluation method described in the above (1).

livid amaranth [2] = experiment: Soil treatment test for upland field; assay type: in vivo, Amaranthus lividus; conditions: 500 g/ha, glass house 25° C., 3 weeks
Excerpt: as §5, §6, §7, §8

young rice plant = experiment: Herbicidal test for paddy field; assay type: in vivo; conditions: paddy field pot, 500 g/ha dropwise at 1.5 leaf stage of barnyardgrass, 3 weeks, rank vs non-treated
Description: as §1, §2, §3, §4, §5

annual bluegrass = experiment: Soil treatment test for upland field; assay type: in vivo, Poa annua; conditions: 500 g/ha, glass house 25° C., 3 weeks
Excerpt: as §5, §6, §7, §8

common lambsquartes [3] = experiment: Soil treatment test for upland field; assay type: in vivo, Chenopodium album; conditions: 500 g/ha, glass house 25° C., 3 weeks
Excerpt: as §5, §6, §7, §8

green foxtail = experiment: Soil treatment test for upland field; assay type: in vivo, Setaria viridis; conditions: 500 g/ha, glass house 25° C., 3 weeks
Excerpt: as §5, §6, §7, §8

barnyardgrass [4] = experiment: Soil treatment test for upland field; assay type: in vivo, Echinochloa crusgalli; conditions: 500 g/ha, glass house 25° C., 3 weeks
Excerpt: as §5, §6, §7, §8

wheat [5] = experiment: Soil treatment test for upland field; assay type: in vivo; conditions: 500 g/ha, glass house 25° C., 3 weeks
Excerpt: as §5, §6, §7, §8

soybean = experiment: Soil treatment test for upland field; assay type: in vivo; conditions: 500 g/ha, glass house 25° C., 3 weeks
Excerpt: as §5, §6, §7, §8

sugar beat [6] = experiment: Soil treatment test for upland field; assay type: in vivo; conditions: 500 g/ha, glass house 25° C., 3 weeks
Excerpt: as §5, §6, §7, §8

solgum [7] = experiment: Soil treatment test for upland field; assay type: in vivo; conditions: 500 g/ha, glass house 25° C., 3 weeks
Excerpt: as §5, §6, §7, §8

cotton = experiment: Soil treatment test for upland field; assay type: in vivo; conditions: 500 g/ha, glass house 25° C., 3 weeks
Excerpt: as §5, §6, §7, §8

corn [8] = experiment: Soil treatment test for upland field; assay type: in vivo; conditions: 500 g/ha, glass house 25° C., 3 weeks
Excerpt: as §5, §6, §7, §8

monochoria = experiment: Herbicidal test for paddy field; assay type: in vivo, Monochoria vaginalis; conditions: paddy field pot, 500 g/ha dropwise at 1.5 leaf stage of barnyardgrass, 3 weeks, rank vs non-treated
Description: as §1, §2, §3, §4, §5

blackgrass = experiment: Soil treatment test for upland field; assay type: in vivo, Alopecurus aegualis; conditions: 500 g/ha, glass house 25° C., 3 weeks
Excerpt: as §5, §6, §7, §8

velvetleaf [9] = experiment: Soil treatment test for upland field; assay type: in vivo, Abutilon theophrasti; conditions: 500 g/ha, glass house 25° C., 3 weeks
Excerpt: as §5, §6, §7, §8

velvetleaf [10] = experiment: Foliar spread test for upland field; assay type: in vivo, Abutilon theophrasti; conditions: foliar spray 500 ppm, 3 weeks, rank vs non-treated
Excerpt: as §5
(§9) Wagner pots, each having an area of 1/5000 are, were packed with volcanic ash soil and then each seed of corn, soybean, cotton, wheat, solgum, sugar beat, Large crabgrass, barnyardgrass, green foxtail, blackgrass, annual bluegrass, common lambsquartes, livid amaranth, velvetleaf and morning glory was planted, covered with soil and grown in a glass house at an average temperature of […] for about 2 weeks.
(§10) Each wettable powder of the desired compounds (I) shown in Table 1 prepared in accordance with Example 2 was diluted to 500 ppm with water containing a surfactant (0.5%) and then uniformly sprayed on the above respective plants.
(§11) After these plants were controlled in a glass house at an average temperature of 25° C. for 3 weeks, the herbicidal effects thereof were investigated.
as §8

livid amaranth [11] = experiment: Foliar spread test for upland field; assay type: in vivo, Amaranthus lividus; conditions: foliar spray 500 ppm, 3 weeks, rank vs non-treated
Excerpt: as §5, §9, §10, §11, §8

wheat [12] = experiment: Foliar spread test for upland field; assay type: in vivo; conditions: foliar spray 500 ppm, 3 weeks, rank vs non-treated
Excerpt: as §5, §9, §10, §11, §8

sugar beat [13] = experiment: Foliar spread test for upland field; assay type: in vivo; conditions: foliar spray 500 ppm, 3 weeks, rank vs non-treated
Excerpt: as §5, §9, §10, §11, §8

solgum [14] = experiment: Foliar spread test for upland field; assay type: in vivo; conditions: foliar spray 500 ppm, 3 weeks, rank vs non-treated
Excerpt: as §5, §9, §10, §11, §8

corn [15] = experiment: Foliar spread test for upland field; assay type: in vivo; conditions: foliar spray 500 ppm, 3 weeks, rank vs non-treated
Excerpt: as §5, §9, §10, §11, §8

common lambsquartes [16] = experiment: Foliar spread test for upland field; assay type: in vivo, Chenopodium album; conditions: foliar spray 500 ppm, 3 weeks, rank vs non-treated
Excerpt: as §5, §9, §10, §11, §8

| Compound | Effect Bulrush (bulrush) | Effect Barnyardgrass (barnyardgrass [1]) | Effects Large crabgrass (Large crabgrass) | Effects Livid amaranth (livid amaranth [2]) | Effect Young rice plant (young rice plant) | Effects Annual bluegrass (annual bluegrass) | Effects Common lambsquarters (common lambsquartes [3]) | Effects Green foxtail (green foxtail) | Effects Barnyardgrass (barnyardgrass [4]) | Effects Wheat (wheat [5]) | Effects Soybean (soybean) | Effects Sugar beat (sugar beat [6]) | Effects Solgum (solgum [7]) | Effects Cotton (cotton) | Effects Corn (corn [8]) | Effect Monochoria (monochoria) | Effects Velvetleaf (velvetleaf [9]) | Effects Velvetleaf (velvetleaf [10]) | Effects Livid amaranth (livid amaranth [11]) | Effects Wheat (wheat [12]) | further results |
| --- | --- | --- | --- | --- | --- | --- | --- | --- | --- | --- | --- | --- | --- | --- | --- | --- | --- | --- | --- | --- | --- |
| CCC(Oc1ccc(F)c(C(F)(F)F)c1)c1nc2ccc(Cl)cc2o1 (stereo not shown) [Compound 9] | 3 | 3 | 5 | 5 | 0 | 4 | 3 | 5 | 4 | 0 | 0 | 2 | 0 | 0 | 0 | 4 |  |  |  |  | Effects Blackgrass (blackgrass): 3 |
| CCC(Oc1ccc(F)c(C(F)(F)F)c1)c1nc2ccc(F)cc2o1 (stereo not shown) [Compound 27] | 4 | 1 | 4 | 5 | 0 | 3 | 3 | 4 | 1 | 0 | 0 | 1 | 0 | 0 | 0 | 5 | 1 |  |  |  |  |
| CCCC(Oc1ccc(F)c(C(F)(F)F)c1)c1nc2cc(S(C)(=O)=O)ccc2o1 (stereo not shown) [Compound 217] | 2 |  | 5 | 5 | 1 | 4 | 5 | 5 |  | 0 | 0 | 5 | 0 | 1 | 0 | 4 | 5 |  |  |  | Effects Blackgrass (blackgrass): 2 |
| CCC(Oc1cccc(C#N)c1)c1nc2cc(Cl)ccc2o1 (stereo not shown) [Compound 353] | 4 | 3 |  |  | 0 |  |  |  |  |  |  |  |  |  |  | 5 |  |  |  |  |  |
| CCCCC(Oc1ccc(F)c(C(F)(F)F)c1)c1nc2cc(Cl)ccc2o1 (stereo not shown) [Compound 476] |  |  | 3 | 5 |  | 4 | 3 | 4 |  | 0 | 0 | 3 | 0 | 0 | 0 |  | 2 | 2 | 5 | 1 | Effects Sugar beat (sugar beat [13]): 5; Effects Solgum (solgum [14]): 0; Effects Corn (corn [15]): 1; Effects Common lambsquarters (common lambsquartes [16]): 5 |
| CCCC(Oc1cccc(C(F)(F)F)c1)c1nc2cc(S(C)(=O)=O)c(C)cc2o1 (stereo not shown) [Compound 489] |  |  | 2 | 5 |  | 5 | 4 | 4 |  | 0 | 0 | 5 | 0 | 0 | 1 |  | 3 | 3 | 5 | 1 | Effects Sugar beat (sugar beat [13]): 5; Effects Solgum (solgum [14]): 1; Effects Corn (corn [15]): 1; Effects Common lambsquarters (common lambsquartes [16]): 5 |
| CCC(Oc1cccc(C(F)(F)F)c1)c1nc2cc(S(C)(=O)=O)c(C)cc2o1 (stereo not shown) [Compound 490] |  |  |  |  |  |  |  |  |  |  |  |  |  |  |  |  |  | 4 | 4 | 1 | Effects Sugar beat (sugar beat [13]): 4; Effects Solgum (solgum [14]): 1; Effects Corn (corn [15]): 1; Effects Common lambsquarters (common lambsquartes [16]): 5 |
| CCCC(Oc1cccc(C#N)c1)c1nc2cc(F)c(Cl)cc2o1 (stereo not shown) [Compound 501] |  | 3 |  |  | 1 |  |  |  |  |  |  |  |  |  |  | 3 |  |  |  |  |  |
| CCC(Oc1ccc(F)c(C(F)(F)F)c1)c1nc2cc(C#N)c(Cl)cc2o1 (stereo not shown) [Compound 517] | 3 | 3 | 3 | 5 | 2 |  | 3 | 4 | 3 | 0 | 0 | 5 | 0 | 0 | 0 | 3 | 3 |  |  |  |  |
